# Reference: patent US20240166626A1, “Compounds and Methods for Preventing, Treating, or Ameliorating Airway Disease” (THOMAS JEFFERSON UNIVERSITY, priority 2021, published 2024)
# System: HASM cells
# Experiment: Human airway smooth muscle cell scratch (migration) assay
# Assay type: cell-based
# Details: 1 μM DFPQ, PDGF, 24 hours, FIG. 4F
# Description: FIGS. 4A-4F: DFPQ inhibits internalization of the β2AR and protects from agonist induced desensitization in cell and tissue models. FIG. 4A: Effect of DFPQ on agonist-promoted internalization of the β2AR. HEK 293 cells stably expressing FLAG-β2AR were pre-incubated with 0.1% DMSO or 10 μM DFPQ for 30 min and then stimulated with the indicated concentrations of ISO for up to 60 min. Cells were fixed and receptor surface expression was measured by ELISA. […] Cells were lysed and cAMP production was measured by ELISA. […] FIG. 4C: Mouse airway tissue were contracted with 1 μM methacholine for 5 min and then incubated overnight with 1 μM ISO±1 μM DFPQ. Airway slices were washed, re-contracted with methacholine, and incubated with ISO for 1 hour (n=4 bronchioles). Airway contractility was measured by luminal area of bronchioles by microscopy at various times. FIG. 4D: Bar graphs represent normalized ISO-promoted relaxation from methacholine contraction on day 2 of treatment at the 25 min timepoint from 4 tracheal rings. *, p<0.05 FIG. 4E: HASM cells were scratched and incubated overnight in PDGF containing serum free media. Cells were imaged to evaluate migration into the scratched area. FIG. 4F: Densitometric analysis of migration into scratched area (n=3 experiments). ***, p<0.001; **, p<0.01
# Cell culture GLOSENSOR™ cells (Promega) were maintained in Dulbecco's modified Eagle's medium (DMEM) containing 10% fetal bovine serum (FBS) and 200 μg/ml Hygromycin B. […]® ADRB2 cells (DiscoveRx) were maintained with the AssayComplete™ Cell Culture kit (DiscoveRx catalog #92-3107G). […] Cells were read every three minutes for 18 minutes on a PolarStar Optima plate reader (BMG) to establish peak signal. ISO was added to each well to a final concentration of 1 μM, and luminescence was determined in kinetic mode at room temperature (23-25° C.). Response was analyzed relative to forskolin (7 μM) and alprenolol (1 μM) as positive and negative controls, respectively. […] Luminescence was determined at room temperature (23-25° C.) on a PolarStar Optima plate reader (BMG). […]
smiles,measurement,value
"Fc1ccc(Nc2nc(NC3CCCCC3)c3ccccc3n2)cc1F [DFPQ, N^4-cyclohexyl-N^2-(3,4-difluorophenyl)quinazoline-2,4-diamine]",effect on β-agonist (SAL or ISO) reduction of HASM migration,significantly enhanced
